Data set [1] deals with Caco-2 cell monolayer. The data set is described as follows: Bidirectional transport (Papp) across Caco-2 cell monolayer. It counts as in vitro ADME, human. The note with it: for Absorption designation: from Caco-2 Papp compared with propranolol and atenolol; for Time course of bilateral permeation: 0–180 min at 50 μM; for Transport mechanism / Efflux Ratio (Papp BL→AP to Papp AP→BL): Caco-2 monolayer; for Efflux Ratio (Papp BL→AP to Papp AP→BL): 90 min; for Concentration dependence of rate of membrane permeation: at 90 min within test range of concentration. The protocol: (§1) The Caco-2 cell monolayer permeability was carried out according to the previously reported method. Briefly, the Caco-2 cells were maintained in DMEM containing 10% FBS, 1% NEAA, 100 units/mL of penicillin, and 100 µg/mL of streptomycin, in a constant humidity atmosphere of 5% CO2 and 95% air at 37 °C. For confluence and differentiation, cells were seeded at a density of 1 × 10^5 cells/cm^2 into 12-well Transwell plates (insert diameter 12 mm, pore size 3.0 μm, membrane growth area 1.12 cm^2, Costar® #3402) and were allowed to grow for 21 days before the permeation experiment. On day 21, the monolayers with TEER values > 500 Ω·cm^2 were qualified for the transport experiment. The transport study was initiated by the careful removal of the culture medium from AP and BL sides of the inserts. Caco-2 monolayers were rinsed twice with pre-warmed HBSS and were incubated by pre-warmed HBSS for 30 min at 37 °C. […] The assayed solutions (50 µM) were added to the AP side (0.5 mL, for absorption transport) or BL side (1.5 mL, for efflux transport) of the inserts, while the receiving chamber contained the corresponding volume of HBSS. Incubation was performed at 37 °C for 90 min, with shaking at 50 rpm. Samples were collected from the inserts and lyophilized. The dried sample was then sonicated with the appropriate volume of MeOH, followed by centrifugation at 15,000× g for 10 min. The supernatant was filtered through a 0.45 μm filter and injected into HPLC system for quantitative analysis.
(§2) The AP to BL or BL to AP permeability coefficient (Papp) value of each compound was calculated based on the following equation:Papp = (dQ/dt) × (1/A) × (1/C0) (cm/s)(1) where dQ/dt is the rate of the appearance of the test compound on the receiver compartment (μmol/s), C0 is the initial test compound concentration on the donor compartment (μmol/mL), and A is the surface area of Caco-2 monolayer (cm^2).
(§3) While shaking the samples (37 °C, 50 rpm), 1.3 mL aliquots were taken from BL side or 0.45 mL aliquots were taken from AP side at 30 min intervals from […].
(§4) After shaking the samples (37 °C, 50 rpm) in a shaking water bath for 90 min, aliquots were collected as described above.

Assay in data set [2]: as above
The data set is classed as in vitro ADME, human. The note with it: human; for Papp at 90 min, 50 µM / Papp A→B at 90 min, 50 µM / Papp B→A at 90 min, 50 µM: Caco-2 monolayer; for Papp at 90 min, 50 µM: both directions; for efflux ratio at 90 min, 50 µM: Caco-2, Caco-2 monolayer, read-out: Efflux Ratio (Papp BL→AP to Papp AP→BL); for Papp A→B at 90 min, 50 µM / Papp B→A at 90 min, 50 µM: incubation up to 90 min, n = 3. On the procedure:
as §1, §2, §3, §4
On the technique in general: Caco-2 cells form a polarised layer with tight junctions and transporters.

The nature of data set [3]: Intracellular accumulation and total recovery (mass balance) at the end of transport. To be noted: human, Caco-2, end of transport, n = 3. The data set is classed as in vitro ADME, human. On the procedure:
(§5) To measure the amount of intracellular accumulation, the Caco-2 cells were rinsed three times with ice-cold HBSS at the end of transport experiments. After three freeze (−20 °C)-thaw (room temperature) cycles, the lysed Caco-2 cells were lyophilized. The dried cells were sonicated in 0.2 mL of 70% aqueous MeOH for 20 min and then centrifuged at 15,000× g for 10 min. The supernatant was filtered through a 0.45 μm filter and a 10 μL aliquot was injected into the HPLC system for analysis. To check the mass balance, the recoveries of the assayed compounds were measured at both sides of the insert and intracellular accumulation of the Caco-2 cells.

Data set [4] has as its system Caco-2 cell monolayer. The data set is described as above. It counts as in vitro ADME, human. The protocol:
as §5

Data set [5] concerns Caco-2 cell monolayer. The note with it: cited from earlier work; for Absorption designation: from previously reported Caco-2 Papp.
Data set [6] can be described thus: Bidirectional transport (Papp) across Caco-2 cell monolayer. The data set is classed as in vitro ADME. To be noted: human, ratio of previously reported Papp values (refs 35, 36), read-out: Efflux Ratio (Papp BL→AP to Papp AP→BL).
Where [7] appears, read: end of transport, n = 3, –: not detected.

SMILES strings stand for the structures. “Also recorded” adds a separate entry of the source. Read-outs that look alike come from different tables or passages of the source.

As usually defined, the Papp is a coefficient for how fast a substance crosses the barrier. As to `CC1(C)[C@@H](O[C@H]2O[C@H](C(=O)O)[C@@H](O)[C@H](O)[C@H]2O[C@@H]2O[C@H](C(=O)O)[C@@H](O)[C@H](O)[C@H]2O)CC[C@]2(C)[C@H]3C(=O)C=C4[C@@H]5C[C@@](C)(C(=O)O)CC[C@]5(C)CC[C@@]4(C)[C@]3(C)CC[C@@H]12` [Compound 1, glycyrrhizin], the “Detection of compound in the receiving side” value in the data set on Caco-2 cell monolayer [1] (after incubation for 90 min, AP→BL and BL→AP) is listed as “not detected; also recorded: below the lower limit of detection”. In addition, the Absorption designation entry with Caco-2 cell monolayer [1] is listed as “very poorly absorbed; also recorded: poorly absorbed”. Further, the apparent permeability (Papp) at 90 min, 50 µM in data set [2] is under 0.1 ×10⁻⁶ cm/s.
The Papp A→B is how fast a substance crosses the layer from the apical side. High values mean fast passage, low ones slow passage. What is called Papp B→A is how fast a substance crosses the layer from the basolateral side. As to `CC1(C)[C@@H](O[C@@H]2O[C@H](C(=O)O)[C@@H](O)[C@H](O)[C@H]2O)CC[C@]2(C)[C@H]3C(=O)C=C4[C@@H]5C[C@@](C)(C(=O)O)CC[C@]5(C)CC[C@@]4(C)[C@]3(C)CC[C@@H]12` [Compound 2, glycyrrhetic acid-3-O-mono-β-D-glucuronide], in the data set on Caco-2 cell monolayer [1], the “Time course of bilateral permeation” value was “increased approximately linearly”, the Transport mechanism entry is reported as “passive diffusion”, the “Efflux Ratio (Papp BL→AP to Papp AP→BL)” value came out at 1.06 and the “Concentration dependence of rate of membrane permeation” value (from here on “Concentration dependence”) is on record as “increased approximately linearly”. The Absorption designation entry in the data set on Caco-2 cell monolayer [1] is given as “moderately absorbed”. Besides, in data set [2], the efflux ratio at 90 min, 50 µM is 1.06 to 1.11; the apical-to-basolateral permeability (Papp A→B) at 90 min, 50 µM worked out at 1.55 ± 0.09 ×10⁻⁶ cm/s; the Papp B→A at 90 min, 50 µM is 1.65 ± 0.95 ×10⁻⁶ cm/s; the apparent permeability coefficient (Papp) at 90 min, 50 µM is about 1 ×10⁻⁶ cm/s. Moreover, the recovery in data set [3] (read-out: Total recovery AP→BL) came out at 97.04 ± 0.36%. Besides, the recovery in data set [3] (read-out: Total recovery BL→AP) is 91.6 ± 1.27%.
Take `CC1(C)[C@@H](O)CC[C@]2(C)[C@H]3C(=O)C=C4[C@@H]5C[C@@](C)(C(=O)O)CC[C@]5(C)CC[C@@]4(C)[C@]3(C)CC[C@@H]12` [Compound 3, glycyrrhetinic acid]: in the data set with Caco-2 cell monolayer [1], the “Time course of bilateral permeation” value is recorded as “increased approximately linearly”, the Transport mechanism entry is given as “passive diffusion”, the “Efflux Ratio (Papp BL→AP to Papp AP→BL)” value turned out to be 1.11 and the “Concentration dependence” value is reported as “increased approximately linearly”. Moreover, in data set [2], the efflux ratio at 90 min, 50 µM was in the range of 1.06 to 1.11; the Papp A→B at 90 min, 50 µM amounted to 12.6 ± 0.4 ×10⁻⁶ cm/s; the Papp B→A at 90 min, 50 µM was found to be 14 ± 1.3 ×10⁻⁶ cm/s; the apparent permeability coefficient (Papp) at 90 min, 50 µM was over 10 ×10⁻⁶ cm/s. For the same compound, in the data set on Caco-2 cell monolayer [4] (setting [7]), the “CA (cell accumulation) AP→BL” value came to 0.25 ± 0.01%. Moreover, the recovery in data set [3] (read-out: Total recovery AP→BL) is 85.1 ± 2.33%. In data set [3] (read-out: Total recovery BL→AP), the recovery amounted to 98.24 ± 0.59%.
Regarding `C=CC(C)(C)c1cc(/C=C/C(=O)c2ccc(O)cc2)c(OC)cc1O` [Compound 4, licochalcone A], in the data set with Caco-2 cell monolayer [1], the Absorption designation result is listed as “moderately absorbed”. For the same compound, in data set [2], the efflux ratio at 90 min, 50 µM is 1.06; the Papp A→B at 90 min, 50 µM was 1.68 ± 0.13 ×10⁻⁶ cm/s; the Papp B→A at 90 min, 50 µM came out at 1.78 ± 0.03 ×10⁻⁶ cm/s. The “Cell accumulation / intracellular uptake (in words)” value with Caco-2 cell monolayer [4] (all bidirectional transport) is “higher intracellular uptake; also recorded: higher accumulation”. Besides, the “Total recovery AP→BL” value in the data set on Caco-2 cell monolayer [4] (end of transport, n = 3) is “relatively lower”. Moreover, in the data set on Caco-2 cell monolayer [4] (setting [7]), the “CA (cell accumulation) AP→BL” value is given as 50.52 ± 1.88% and the “CA (cell accumulation) BL→AP” value turned out to be 42.56 ± 2.36%. Further, the recovery in data set [3] (read-out: Total recovery AP→BL) came to 81.88 ± 0.67%. The recovery in data set [3] (read-out: Total recovery BL→AP) stood at 90.4 ± 2.74%.
Turning to `COc1c(/C=C/C(=O)c2ccc(O)cc2)ccc(O)c1O` [Compound 5, licochalcone B], in data set [2], the efflux ratio at 90 min, 50 µM was found to be 1.22; the Papp A→B at 90 min, 50 µM worked out at 24.7 ± 2.8 ×10⁻⁶ cm/s; the Papp B→A at 90 min, 50 µM came to 30.2 ± 2.4 ×10⁻⁶ cm/s. Moreover, the recovery in data set [3] (read-out: Total recovery AP→BL) came out at 96.2 ± 0.19%. Besides, the recovery in data set [3] (read-out: Total recovery BL→AP) stood at 94.5 ± 2.89%.
For `COc1c(/C=C/C(=O)c2ccc(O)cc2)ccc(O)c1CC=C(C)C` [Compound 6, licochalcone C] the same measures were 1.17, 22.5 ± 1 ×10⁻⁶ cm/s, 26.4 ± 1.3 ×10⁻⁶ cm/s, 97.5 ± 1.26% and 96.1 ± 4.55%.
With `COc1cc(O)ccc1/C=C/C(=O)c1ccc(O)cc1` [Compound 7, echinatin], in data set [2], the efflux ratio at 90 min, 50 µM worked out at 1.15; the Papp A→B at 90 min, 50 µM was found to be 20.7 ± 1 ×10⁻⁶ cm/s; the Papp B→A at 90 min, 50 µM was 23.8 ± 0.3 ×10⁻⁶ cm/s. For the same compound, the recovery in data set [3] (read-out: Total recovery AP→BL) was found to be 96.9 ± 2.67%. Moreover, the recovery in data set [3] (read-out: Total recovery BL→AP) came to 97.7 ± 3.29%.
For `O=C1C[C@@H](c2ccc(O)cc2)Oc2cc(O)ccc21` [Compound 9, liquiritigenin], in the data set with Caco-2 cell monolayer [1], the “Time course of bilateral permeation” value is “increased approximately linearly” and the “Concentration dependence” value is given as “increased approximately linearly”. In addition, in data set [2], the efflux ratio at 90 min, 50 µM stood at 0.88; the Papp A→B at 90 min, 50 µM came to 17.8 ± 0.6 ×10⁻⁶ cm/s; the apparent permeability from basolateral to apical (Papp B→A) at 90 min, 50 µM was determined as 15.7 ± 0.3 ×10⁻⁶ cm/s; the Papp at 90 min, 50 µM was about 10 ×10⁻⁶ cm/s. Also, the recovery in data set [3] (read-out: Total recovery AP→BL) stood at 87 ± 2.78%. In data set [3] (read-out: Total recovery BL→AP), the recovery stood at 94.8 ± 4.29%.
With `O=C(/C=C/c1ccc(O)cc1)c1ccc(O)cc1O` [Compound 11, isoliquiritigenin], the “Papp BL→AP” value in the data set with Caco-2 cell monolayer [5] (Caco-2 monolayer) is reported as 9.35 ± 0.43 ×10^−6 cm/s.
For `O=C(/C=C/c1ccc(O[C@@H]2O[C@H](CO)[C@@H](O)[C@H](O)[C@H]2O)cc1)c1ccc(O)cc1O` [Compound 12, isoliquiritin], in the data set on Caco-2 cell monolayer [5] (Caco-2 monolayer), the “Papp AP→BL” value was 0.87 ± 0.02 ×10^−6 cm/s, the “Papp BL→AP” value is 0.77 ± 0.07 ×10^−6 cm/s, the “Papp from AP to BL direction” value was “(8.69 ± 0.15) × 10^−7 cm/s” and the “Papp from BL to AP direction” value is given as “(7.68 ± 0.66) × 10^−7 cm/s”. Further, in the data set on Caco-2 cell monolayer [5] (Caco-2 monolayer), the “Papp values (bidirectional)” value was at most 0.1 ×10⁻⁶ cm/s. Moreover, the Absorption designation entry with Caco-2 cell monolayer [5] is “poorly absorbed”. Moreover, the efflux ratio in data set [6] stood at 0.89.
`O=C1C[C@@H](c2ccc(O[C@@H]3O[C@H](CO)[C@@H](O)[C@H](O)[C@H]3O)cc2)Oc2cc(O)ccc21` [Compound 13, liquiritin]: in the data set with Caco-2 cell monolayer [5] (Caco-2 monolayer), the “Papp AP→BL” value was 0.54 ± 0.02 ×10^−6 cm/s, the “Papp BL→AP” value is 0.53 ± 0.03 ×10^−6 cm/s, the “Papp from BL to AP direction” value is recorded as “(5.32 ± 0.31) × 10^−7 cm/s” and the “Papp values (bidirectional)” value was about 0.1 ×10⁻⁶ cm/s. Moreover, the Absorption designation entry in the data set on Caco-2 cell monolayer [5] was “poorly absorbed”. Besides, the efflux ratio in data set [6] amounted to 0.98.
In the case of `CC(C)NCC(O)COc1cccc2ccccc12` (stereo not shown) [propranolol, reference compound], the Papp in data set [2] (Caco-2, read-out: Papp of transport markers) amounted to 25.1 ×10⁻⁶ cm/s.

Values taken from paper PMC6151599, “Intestinal Absorption of Triterpenoids and Flavonoids from Glycyrrhizae radix et rhizoma in the Human Caco-2 Monolayer Cell Model” (Molecules : A Journal of Synthetic Chemistry and Natural …, 2017).
